“And” between values parts separate entries of the source, which are not always exact repeats. Identical values can stand only once. Like-named read-outs stand apart in the source and are kept apart here.
Key:
[1] = test system: subjects with diabetic or idiopathic gastroparesis; assay: DIGEST I Phase 2b: weekly GCSI-24H total score; details: 30 mg/day;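 note: Patient-reported daily electronic-diary symptom index rating nausea/vomiting, postprandial fullness/early satiety and bloating, averaged weekly, once-daily oral capsule taken before breakfast, baseline from 1-week pretreatment period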
Source text: The total duration of study participation for each completed subject was approximately 19 weeks including: • Screening period: up to 5 weeks, including one week baseline period; • Treatment period: 12 weeks; and • Follow-up: 2 weeks.
To qualify for entry into the Baseline Period of the study, subjects had to have: a) a composite score of 2 and <5 points on nausea, bloating, feeling excessively full after meals, and not able to finish a normal-sized meal on the GCS1-2W; b) a score of ≥3 points for at least 2 of these 4 symptoms on the GCS1-2W at Screening; and c) delayed gastric emptying as determined by either a 4-hour ^99mTc GES or GEBT. If a subject failed either the GES or GEBT at Screening, then a second gastric emptying test could have been performed during the Screening Period using the GEBT in order to qualify for the study. Subjects who were eligible for further study participation completed the 2 daily PRO measures (the Gastroparesis Rating Scale [GRS] and a daily version of the GCSI, designated the Gastroparesis Cardinal Symptoms Index—24-Hour Recall [GCS1-24H] in this study) over a 7-day period to establish baselines.
After the 1-week Baseline Period, subjects were required to have a 7-day mean score of ≥2.5 and <5 points on the GCS.1-24H at Day 1 to be eligible for entry. Eligible subjects completed the Patient Assessment of Upper Gastrointestinal Quality of Life (PAG1-QOL) questionnaire to establish baseline QOL metrics at Day 1.
During the treatment period, subjects were instructed to take 1 capsule of study drug once daily approximately 30 minutes prior to eating at approximately the same time each morning and to record the time of drug ingestion in the electronic diary. Subjects also completed the GCS1-24H and GRS on a daily basis using an electronic diary. At specified times, subjects also completed the PAG1-QOL questionnaire to assess QOL metrics and the Treatment Satisfaction Questionnaire. In addition, subjects and clinicians completed the Overall Treatment Effect (OTE) and Overall Gastroparesis Severity (OGS) instruments to serve as anchor instruments for the psychometric evaluation of the GRS measure. Subjects returned to the study center for safety and efficacy assessments as detailed in the Schedule of Study Procedures.
A total score was used to assess the GCSI PRO, which comprised a mean of 3 means symptoms domain score.
Each individual domain was evaluated. […] LS Mean Differences in each subgroup are calculated based on repeated measures mixed effect model with change from baseline in weekly GCSI-24H total score as dependent variable, treatment, gastroparesis type (diabetic vs. idiopathic), GE test time (historical vs. prospective), baseline GCSI 24H total score, time, subgroup variable, interaction effect of treatment by time, baseline GCSI 24H total score by time, treatment by subgroup variable, time by subgroup variable and treatment by time by subgroup variable as fixed effect, a random effect of subject within site, using an unstructured covariance structure. For GCSI baseline subgroup analysis, baseline 24H total score is replaced with GCSI baseline categorical variable.

[2] = test system: subjects with diabetic or idiopathic gastroparesis
Source text: A daily proprietary patient reported outcome (PRO) tool was used to assess GP symptoms, the Gastroparesis Rating Scale (GRS), developed according to the current FDA PRO guidance. The GRS covers the following cardinal symptom domains: (1) nausea, (2) vomiting, (3) postprandial fullness/early satiety, (4) bloating, (5) upper abdominal pain, (6) gastric reflux/burning, and (7) bowel movements. The GRS symptom domains may be also categorized or grouped into Factor 1 (fullness, early satiety, bloating, upper abdominal pain, and epigastric burning) and Factor 2 (nausea and vomiting).
GRS Factor 1 (also Summary Score 1) comprised fullness/early satiety, bloating, upper abdominal pain, and epigastric burning domains, whereas GRS Factor 2 (also Summary Score 2) comprised nausea and vomiting domains.
After the psychometric evaluation the GRS was summarized using two summary scores: Summary Score 1 combined the fullness/early satiety, bloating, upper abdominal pain, and epigastric burning domains and Summary Score 2 combined the nausea and vomiting domains.

[3] = Week 14 (off therapy), diabetic patients
[4] = Week 14 (off therapy), idiopathic patients
[5] = 5 mg/day, Week 4, diabetic gastroparesis population
[6] = 5 mg/day, Week 4, idiopathic gastroparesis population
[7] = 5 mg/day, Week 8, diabetic gastroparesis population
[8] = 5 mg/day, Week 8, idiopathic gastroparesis population
[9] = 15 mg/day, Week 4, diabetic gastroparesis population
[10] = 15 mg/day, Week 4, idiopathic gastroparesis population
[11] = 15 mg/day, Week 8, diabetic gastroparesis population
[12] = 15 mg/day, Week 8, idiopathic gastroparesis population
[13] = 15 mg/day, Week 12, diabetic gastroparesis population
[14] = 15 mg/day, Week 12, idiopathic gastroparesis population
[15] = 30 mg/day, Week 4, diabetic gastroparesis population
[16] = 30 mg/day, Week 4, idiopathic gastroparesis population
[17] = 30 mg/day, Week 8, diabetic gastroparesis population
[18] = 30 mg/day, Week 8, idiopathic gastroparesis population
[19] = 30 mg/day, Week 12, diabetic gastroparesis population
[20] = 30 mg/day, Week 12, idiopathic gastroparesis population

## 1-isopropyl-2-oxo-1,2-dihydroquinoline-3-carboxylic acid {(1S,3R,5R)-8-[(R)-2-hydroxy-3-(methanesulfonyl-methyl-amino)propyl]-8-azabicyclo[3.2.1]oct-3-yl}amide [Velusetrag]
[1]; Week 12, ITT
  LS Mean change from baseline, weekly GCSI-24H total score: −1.5 (0.15) points
[1]; Week 12, diabetic patients
  LS Mean Difference vs placebo, weekly GCSI-24H total score: 0.1 points
  LS Mean change from baseline, weekly GCSI-24H total score: −1.6 points
[1]; Week 12, idiopathic patients
  LS Mean Difference vs placebo, weekly GCSI-24H total score: −0.2 (0.30) points
  LS Mean change from baseline, weekly GCSI-24H total score: −1.3 (0.21) points
[1]; [3]
  LS Mean Difference vs placebo, weekly GCSI-24H total score: −0.1 points
  LS Mean change from baseline, weekly GCSI-24H total score: −1.7 points
[1]; [4]
  LS Mean Difference vs placebo, weekly GCSI-24H total score: 0.0 (0.29) points
  LS Mean change from baseline, weekly GCSI-24H total score: −1.0 (0.20) points
[2]; 5 mg/day, Week 4, ITT
  LS Mean Difference vs placebo, GRS Summary Score 1 (Factor 1): −0.4 points and −0.4 (0.16) points
  LS Mean change from baseline, GRS Summary Score 1 (Factor 1): −1.3 (0.11) points
[2]; [5]
  LS Mean Difference vs placebo, GRS Summary Score 1 (Factor 1): −0.3 (0.22) points
  LS Mean change from baseline, GRS Summary Score 1 (Factor 1): −1.2 (0.16) points
[2]; [6]
  LS Mean Difference vs placebo, GRS Summary Score 1 (Factor 1): −0.5 (0.23) points
  LS Mean change from baseline, GRS Summary Score 1 (Factor 1): −1.3 (0.16) points
[2]; 5 mg/day, Week 8, ITT
  LS Mean Difference vs placebo, GRS Summary Score 1 (Factor 1): −0.3 (0.18) points
  LS Mean change from baseline, GRS Summary Score 1 (Factor 1): −1.4 (0.13) points
[2]; [7]
  LS Mean Difference vs placebo, GRS Summary Score 1 (Factor 1): −0.2 (0.25) points
  LS Mean change from baseline, GRS Summary Score 1 (Factor 1): −1.4 (0.18) points
[2]; [8]
  LS Mean Difference vs placebo, GRS Summary Score 1 (Factor 1): −0.4 (0.26) points
  LS Mean change from baseline, GRS Summary Score 1 (Factor 1): −1.4 (0.18) points
[2]; 5 mg/day, Week 12, ITT
  LS Mean Difference vs placebo, GRS Summary Score 1 (Factor 1): −0.4 points and −0.4 (0.19) points
  LS Mean change from baseline, GRS Summary Score 1 (Factor 1): −1.5 (0.13) points
[2]; 15 mg/day, Week 4, ITT
  LS Mean Difference vs placebo, GRS Summary Score 1 (Factor 1): −0.2 (0.17) points
  LS Mean change from baseline, GRS Summary Score 1 (Factor 1): −1.1 (0.12) points
[2]; [9]
  LS Mean Difference vs placebo, GRS Summary Score 1 (Factor 1): −0.2 points
  LS Mean change from baseline, GRS Summary Score 1 (Factor 1): −1.2 points
[2]; [10]
  LS Mean Difference vs placebo, GRS Summary Score 1 (Factor 1): −0.4 (0.25) points
  LS Mean change from baseline, GRS Summary Score 1 (Factor 1): −1.2 (0.18) points
[2]; 15 mg/day, Week 8, ITT
  LS Mean Difference vs placebo, GRS Summary Score 1 (Factor 1): −0.1 (0.19) points
  LS Mean change from baseline, GRS Summary Score 1 (Factor 1): −1.2 (0.14) points
[2]; [11]
  LS Mean Difference vs placebo, GRS Summary Score 1 (Factor 1): 0.0 points
  LS Mean change from baseline, GRS Summary Score 1 (Factor 1): −1.2 points
[2]; [12]
  LS Mean Difference vs placebo, GRS Summary Score 1 (Factor 1): −0.4 (0.28) points
  LS Mean change from baseline, GRS Summary Score 1 (Factor 1): −1.3 (0.20) points
[2]; 15 mg/day, Week 12, ITT
  LS Mean Difference vs placebo, GRS Summary Score 1 (Factor 1): −0.2 (0.2) points
  LS Mean change from baseline, GRS Summary Score 1 (Factor 1): −1.3 (0.15) points
[2]; [13]
  LS Mean Difference vs placebo, GRS Summary Score 1 (Factor 1): 0.0 points
  LS Mean change from baseline, GRS Summary Score 1 (Factor 1): −1.3 points
[2]; [14]
  LS Mean Difference vs placebo, GRS Summary Score 1 (Factor 1): −0.4 (0.29) points
  LS Mean change from baseline, GRS Summary Score 1 (Factor 1): −1.4 (0.22) points
[2]; 30 mg/day, Week 4, ITT
  LS Mean Difference vs placebo, GRS Summary Score 1 (Factor 1): 0.0 (0.17) points
  LS Mean change from baseline, GRS Summary Score 1 (Factor 1): −0.8 (0.12) points
[2]; [15]
  LS Mean Difference vs placebo, GRS Summary Score 1 (Factor 1): 0.1 points
  LS Mean change from baseline, GRS Summary Score 1 (Factor 1): −0.8 points
[2]; [16]
  LS Mean Difference vs placebo, GRS Summary Score 1 (Factor 1): −0.0 (0.23) points
  LS Mean change from baseline, GRS Summary Score 1 (Factor 1): −0.8 (0.16) points
[2]; 30 mg/day, Week 8, ITT
  LS Mean Difference vs placebo, GRS Summary Score 1 (Factor 1): −0.1 (0.18) points
  LS Mean change from baseline, GRS Summary Score 1 (Factor 1): −1.1 (0.13) points
[2]; [17]
  LS Mean Difference vs placebo, GRS Summary Score 1 (Factor 1): 0.0 points
  LS Mean change from baseline, GRS Summary Score 1 (Factor 1): −1.2 points
[2]; [18]
  LS Mean Difference vs placebo, GRS Summary Score 1 (Factor 1): −0.2 (0.26) points
  LS Mean change from baseline, GRS Summary Score 1 (Factor 1): −1.1 (0.18) points
[2]; 30 mg/day, Week 12, ITT
  LS Mean Difference vs placebo, GRS Summary Score 1 (Factor 1): −0.1 (0.2) points
  LS Mean change from baseline, GRS Summary Score 1 (Factor 1): −1.2 (0.14) points
[2]; [19]
  LS Mean Difference vs placebo, GRS Summary Score 1 (Factor 1): −0.1 points
  LS Mean change from baseline, GRS Summary Score 1 (Factor 1): −1.3 points
[2]; [20]
  LS Mean Difference vs placebo, GRS Summary Score 1 (Factor 1): −0.1 (0.28) points
  LS Mean change from baseline, GRS Summary Score 1 (Factor 1): −1.1 (0.19) points
